Read-outs that look alike come from different tables or passages of the source.
Key:
[1] = target: panel of 255 wild-type kinases (Homo sapiens, UniProt O75582); assay: Kinase panel profiling at 1 µmol/L (MSA or IMAP), percentage inhibition; format: biochemical; details: MSK1; 1 µmol/L single concentration; read-out: %-inhibition, MSK1
[2] = target: panel of 255 wild-type kinases (Homo sapiens, UniProt P22607); assay: as above; format: biochemical; details: kinase FGFR3; 1 µmol/L single concentration; read-out: %-inhibition at 1 µmol/L, FGFR3
[3] = target: panel of 255 wild-type kinases (Homo sapiens, UniProt P45983); assay: as above; format: biochemical; details: kinase JNK1; 1 µmol/L single concentration; read-out: %-inhibition at 1 µmol/L, JNK1
[4] = target: panel of 255 wild-type kinases (Homo sapiens, UniProt P49760); assay: as above; format: biochemical; details: kinase CLK2; 1 µmol/L single concentration; read-out: %-inhibition at 1 µmol/L, CLK2
[5] = target: panel of 255 wild-type kinases (Homo sapiens, UniProt P50613); assay: as above; format: biochemical; details: CDK7/CycH/MAT1 kinase assay; 1 µmol/L single concentration; read-out: %-inhibition CDK7/CycH/MAT1
[6] = target: panel of 255 wild-type kinases (Homo sapiens, UniProt Q00526); assay: as above; format: biochemical; details: CDK3/CycE1 kinase assay; 1 µmol/L single concentration; read-out: %-inhibition CDK3/CycE1
[7] = target: panel of 255 wild-type kinases (Homo sapiens, UniProt Q13177); assay: as above; format: biochemical; details: PAK2; 1 µmol/L single concentration; read-out: %-inhibition, PAK2
[8] = target: panel of 255 wild-type kinases (Homo sapiens, UniProt Q96RG2); assay: as above; format: biochemical; details: PASK; 1 µmol/L single concentration; read-out: %-inhibition, PASK
[9] = target: panel of 255 wild-type kinases (Homo sapiens, UniProt Q9HBH9); assay: as above; format: biochemical; details: MNK2; 1 µmol/L single concentration; read-out: %-inhibition, MNK2
AP-1060 (ETV6-NTRK3) = assay: Cell viability assay; details: read-out: IC50 in cell proliferation assay
134 cancer cell lines = assay: Cell viability assay (ATPlite, 72 hours), IC50 on cancer cell line panel

## COC(=O)N[C@@H](C)CNc1nccc(-c2cn(C(C)C)nc2-c2cc(Cl)cc(NS(C)(=O)=O)c2F)n1 [encorafenib]
[1]
  inhibition at 1 µM: 11%
[2]
  inhibition at 1 µM: 1%
[3]
  inhibition at 1 µM: 6%
[4]
  inhibition at 1 µM: 0.465%
[5]
  inhibition at 1 µM: -6.5%
[6]
  inhibition at 1 µM: -2%
[7]
  inhibition at 1 µM: 9.49%
[8]
  inhibition at 1 µM: -3%
[9]
  inhibition at 1 µM: -3.42%
AP-1060 (ETV6-NTRK3)
  IC50: 2520 nM
134 cancer cell lines; HEC-6, read-out: IC50 in cell proliferation assay, HEC-6 cell line (EGFR p.A289V)
  IC50: 1240 nM
134 cancer cell lines; Homo sapiens, 769-P, read-out: IC50 in cell proliferation assay, cell line 769-P
  IC50: 1190 nM
134 cancer cell lines; Homo sapiens, 786-0, read-out: IC50 in cell proliferation assay, cell line 786-O
  IC50: 1390 nM
134 cancer cell lines; Homo sapiens, A 172, read-out: IC50 in cell proliferation assay, cell line A-172
  IC50: 1780 nM
134 cancer cell lines; Homo sapiens, A204, read-out: IC50 in cell proliferation assay, cell line A-204
  IC50: 1050 nM
134 cancer cell lines; Homo sapiens, A498, read-out: IC50 in cell proliferation assay, cell line A-498
  IC50: 527 nM
134 cancer cell lines; Homo sapiens, A549, read-out: IC50 in cell proliferation assay, cell line A-549
  IC50: 1220 nM
134 cancer cell lines; Homo sapiens, A704, read-out: IC50 in cell proliferation assay, cell line A-704
  IC50: 5460 nM
134 cancer cell lines; Homo sapiens, A-375, read-out: IC50 in cell proliferation assay, cell line A-375 (BRAF p.V600E)
  IC50: 9 nM
134 cancer cell lines; Homo sapiens, A-427, read-out: IC50 in cell proliferation assay, cell line A-427
  IC50: 840 nM
134 cancer cell lines; Homo sapiens, ACHN, read-out: IC50 in cell proliferation assay, cell line ACHN
  IC50: 624 nM
134 cancer cell lines; Homo sapiens, AN3-CA, read-out: IC50 in cell proliferation assay, cell line AN3-CA (FGFR2 p.N549K)
  IC50: 623 nM
134 cancer cell lines; Homo sapiens, ASPC1, read-out: IC50 in cell proliferation assay, cell line AsPC-1
  IC50: 2880 nM
134 cancer cell lines; Homo sapiens, AU565, read-out: IC50 in cell proliferation assay, cell line AU565 (ERBB2 amplification)
  IC50: 421 nM
134 cancer cell lines; Homo sapiens, BT-20, read-out: IC50 in cell proliferation assay, cell line BT-20
  IC50: > 31600 nM
134 cancer cell lines; Homo sapiens, BT-474, read-out: IC50 in cell proliferation assay, cell line BT-474 (ERBB2 amplification)
  IC50: > 31600 nM
134 cancer cell lines; Homo sapiens, BT-549, read-out: IC50 in cell proliferation assay, cell line BT-549
  IC50: 1020 nM
134 cancer cell lines; Homo sapiens, BXPC-3, read-out: IC50 in cell proliferation assay, cell line BxPC-3
  IC50: 408 nM
134 cancer cell lines; Homo sapiens, C-33-A, read-out: IC50 in cell proliferation assay, cell line C-33 A
  IC50: 922 nM
134 cancer cell lines; Homo sapiens, CAL-27, read-out: IC50 in cell proliferation assay, cell line CAL-27
  IC50: 6980 nM
134 cancer cell lines; Homo sapiens, CCF-STTG1, read-out: IC50 in cell proliferation assay, cell line CCF-STTG1
  IC50: > 31600 nM
134 cancer cell lines; Homo sapiens, CCRF-CEM, read-out: IC50 in cell proliferation assay, cell line CCRF-CEM
  IC50: > 31600 nM
134 cancer cell lines; Homo sapiens, COLO 205, read-out: IC50 in cell proliferation assay, cell line COLO 205 (BRAF p.V600E)
  IC50: 3.32 nM
134 cancer cell lines; Homo sapiens, COLO-829, read-out: IC50 in cell proliferation assay, cell line COLO 829 (BRAF p.V600E)
  IC50: 9 nM
134 cancer cell lines; Homo sapiens, DLD-1, read-out: IC50 in cell proliferation assay, cell line DLD-1
  IC50: 1650 nM
134 cancer cell lines; Homo sapiens, DU-4475, read-out: IC50 in cell proliferation assay, cell line DU4475 (BRAF p.V600E)
  IC50: 8 nM
134 cancer cell lines; Homo sapiens, Daoy, read-out: IC50 in cell proliferation assay, cell line Daoy
  IC50: > 31600 nM
134 cancer cell lines; Homo sapiens, DoTc2-4510, read-out: IC50 in cell proliferation assay, cell line DoTc2 4510
  IC50: 3280 nM
134 cancer cell lines; Homo sapiens, EOL1, read-out: IC50 in cell proliferation assay, cell line EoL-1 (FIP1L1-PDGFRA)
  IC50: 2340 nM
134 cancer cell lines; Homo sapiens, FaDu, read-out: IC50 in cell proliferation assay, cell line FaDu
  IC50: 964 nM
134 cancer cell lines; Homo sapiens, G-361, read-out: IC50 in cell proliferation assay, cell line G-361 (BRAF p.V600E)
  IC50: 13 nM
134 cancer cell lines; Homo sapiens, HCC827, read-out: IC50 in cell proliferation assay, cell line HCC827 (EGFR exon19del)
  IC50: 893 nM
134 cancer cell lines; Homo sapiens, HCC4006, read-out: IC50 in cell proliferation assay, cell line HCC4006 (EGFR exon19del)
  IC50: > 31600 nM
134 cancer cell lines; Homo sapiens, HCT-15, read-out: IC50 in cell proliferation assay, cell line HCT 15
  IC50: 2940 nM
134 cancer cell lines; Homo sapiens, HCT-116, read-out: IC50 in cell proliferation assay, cell line HCT 116
  IC50: 1150 nM
134 cancer cell lines; Homo sapiens, HEC-1, read-out: IC50 in cell proliferation assay, HEC-1 cell line
  IC50: 1570 nM
134 cancer cell lines; Homo sapiens, HEC-1B, read-out: IC50 in cell proliferation assay, HEC-1-B cell line (EGFR p.A864V)
  IC50: 2100 nM
134 cancer cell lines; Homo sapiens, HL-60, read-out: IC50 in cell proliferation assay, HL-60 cell line
  IC50: 1800 nM
134 cancer cell lines; Homo sapiens, HT, read-out: IC50 in cell proliferation assay, HT cell line
  IC50: > 31600 nM
134 cancer cell lines; Homo sapiens, HT-1080, read-out: IC50 in cell proliferation assay, HT-1080 cell line
  IC50: 381 nM
134 cancer cell lines; Homo sapiens, Hs746T, read-out: IC50 in cell proliferation assay, Hs 746.T cell line (MET exon14skip + amplification)
  IC50: 1120 nM
134 cancer cell lines; Homo sapiens, Hs-578T, read-out: IC50 in cell proliferation assay, Hs 578T cell line
  IC50: 1030 nM
134 cancer cell lines; Homo sapiens, HuTu80, read-out: IC50 in cell proliferation assay, HuTu 80 cell line
  IC50: 1120 nM
134 cancer cell lines; Homo sapiens, J82, read-out: IC50 in cell proliferation assay, J82 cell line
  IC50: 949 nM
134 cancer cell lines; Homo sapiens, Jurkat E6.1, read-out: IC50 in cell proliferation assay, Jurkat E6.1 cell line
  IC50: 1040 nM
134 cancer cell lines; Homo sapiens, K562, read-out: IC50 in cell proliferation assay, K-562 cell line
  IC50: 27600 nM
134 cancer cell lines; Homo sapiens, KATO III, read-out: IC50 in cell proliferation assay, KATO III cell line (FGFR2 amplification)
  IC50: 1510 nM
134 cancer cell lines; Homo sapiens, KG-1, read-out: IC50 in cell proliferation assay, KG-1 cell line (FGFR1OP2-FGFR1)
  IC50: 1440 nM
134 cancer cell lines; Homo sapiens, KLE, read-out: IC50 in cell proliferation assay, KLE cell line
  IC50: 822 nM
134 cancer cell lines; Homo sapiens, KMS-11, read-out: IC50 in cell proliferation assay, KMS-11 cell line (FGFR3 p.Y373C)
  IC50: 3390 nM
134 cancer cell lines; Homo sapiens, KU812, read-out: IC50 in cell proliferation assay, Ku812 cell line
  IC50: 2570 nM
134 cancer cell lines; Homo sapiens, Kasumi 1, read-out: IC50 in cell proliferation assay, Kasumi-1 cell line (KIT p.N822K)
  IC50: 3020 nM
134 cancer cell lines; Homo sapiens, LC-2-ad, read-out: IC50 in cell proliferation assay, LC-2/ad cell line (CCDC6-RET)
  IC50: 1530 nM
134 cancer cell lines; Homo sapiens, LNCaP-Clone-FGC, read-out: IC50 in cell proliferation assay, LNCaP clone FGC cell line
  IC50: 2150 nM
134 cancer cell lines; Homo sapiens, LS174T, read-out: IC50 in cell proliferation assay, LS174T cell line
  IC50: 1700 nM
134 cancer cell lines; Homo sapiens, LS-411N, read-out: IC50 in cell proliferation assay, LS411N cell line (BRAF p.V600E)
  IC50: 6 nM
134 cancer cell lines; Homo sapiens, LoVo, read-out: IC50 in cell proliferation assay, LoVo cell line
  IC50: 2500 nM
134 cancer cell lines; Homo sapiens, MCF7, read-out: IC50 in cell proliferation assay, MCF-7 cell line
  IC50: > 31600 nM
134 cancer cell lines; Homo sapiens, MDA-MB-231, read-out: IC50 in cell proliferation assay, MDA-MB-231 cell line
  IC50: 2420 nM
134 cancer cell lines; Homo sapiens, MDA-MB-453, read-out: IC50 in cell proliferation assay, MDA-MB-453 cell line
  IC50: > 31600 nM
134 cancer cell lines; Homo sapiens, MDA-MB-468, read-out: IC50 in cell proliferation assay, MDA-MB-468 cell line
  IC50: > 31600 nM

Source: PMC9516332 (Frontiers in Oncology, 2022)
